Values quoted from earlier work in patent US20220008839A1, “SEMI-AQUEOUS METHOD FOR EXTRACTING A SUBSTANCE” (Clean Imagineering LLC, priority 2020, published 2022).

solubility in ethyl acetate (ethyl acetate) | water solubility (at 20° C.) | SMILES | solubility in ethanol (an alcohol such as ethanol) | solubility in water
– | – | C=C(C)[C@@H]1CC[C@]2(CO)CC[C@]3(C)[C@H](CC[C@@H]4[C@@]5(C)CC[C@H](O)C(C)(C)[C@@H]5CC[C@]43C)[C@@H]12 [Betulin] | highly soluble | insoluble in water
freely soluble | – | CC(C)=CCC/C(C)=C/C=C/C(C)=C/C=C/C(C)=C/C=C/C=C(C)/C=C/C=C(C)/C=C/C=C(\C)CCC=C(C)C [Lycopene] | – | insoluble in water
– | 86 mg/mL | CCOC(C)=O [ethyl acetate] | – | –
